Assay results reported in article PMC9935382, “Sorting nexin-dependent therapeutic targeting of oncogenic epidermal growth factor receptor” (Cancer Gene Therapy, 2022).
“Also recorded” adds a separate entry of the source.

Tests used:
MCF10A cells = experiment: MTT cell viability, MCF10A; format: cell-based; conditions: immortalized breast epithelial line, 3 days
Method: (§1) 2 × 10^3 cells were plated per well in a 96 well plate and left to adhere overnight. The following day, drug treatments were started and continued for 3 days. To measure the viability of the remaining cell population, 10% 3-(4,5-dimethylthiazol-2-yl)-2,5-diphenyltetrazolium (MTT) in media was added and incubated for 2 hours and conversion of MTT to formazan at 540 nm using a biotech Synergy LX plate reader.
(§2) A–G Cells were plated in a 96-well plate at 2000 cells per well. […] Cell viability was then measured with an MTT assay, viability of treated cells were compared with the vehicle control. H MDA-MB-468 cells were plated and incubated+/− IPTG for 2 days prior to drug treatment to induce expression of an EGFR-targeted shRNA.

CHO cells = experiment: MTT cell viability, CHO; format: cell-based, Chinese hamster; conditions: CHO cells lack EGFR expression, 3 days
Method: as §1, §2
Supplementary Figure 1. A. BT20 triple negative breast cancer cells were treated with SNX1.1, 1.2, or 1.3 for 3 days and their viability was measured via MTT analysis. B. CHO cells were treated with PTD4 or SNX1.3 for 3 days and their viability was measured via MTT analysis.

T47D cells = conditions: previously characterized; no reference given; cited from earlier work
MDA-MB-231 cells = conditions: previously characterized; no reference given; cited from earlier work
[1] = target: EGFR kinase domain protein (EGFRkin), residues 672-998 with N-terminal His-tag (human); experiment: MST; His-EGFRkin (50 nM) labelled through the His-tag with RED-tris-NTA 2nd Generation dye; SNX peptides or SNX-BAR protein titrated, 16 1:1 serial dilutions from 20 uM in PBS-T; room temperature; Monolith NT.115 pico
[2] = target: T1, EGFR kinase domain (residues 672–998) (Homo sapiens, UniProt P00533); experiment: Microscale thermophoresis (MST) binding to EGFRkin; conditions: MST, His-EGFRkin 50 nM (RED-tris-NTA dye) titrated with ligand, 16 1:1 serial dilutions from 20 μM, PBS-T, room temperature
T1 construct: baculovirus insect cell expression system (residues 672–998 with N-terminal His-tag followed by TEV cleavage site); made in house; host or cells: Sf9 insect cells (Bac-to-Bac baculovirus, pFastBacHT)
Method: Briefly pFastBacHT plasmid containing the cDNA of EGFR kinase domain with N-terminal His-tag was transformed into DH10Bac E. coli to generate bacmid DNA. P1 virus was generated by transfecting 2.0 mL of sf9 cells at 1.0 million cells/ml density with the purified bacmid DNA (200–3000 ng/μL). The P1 virus was harvested after 5–7 days following transfection. The P1 virus was diluted 100-fold into an sf9 cell culture at a density of 2.0 million cells/ml and cultured for 3 days. Supernatant containing the P2 virus was collected by centrifugation and diluted 40-fold into 1.0 L of sf9 cells at a density of 2.0 million cells/ml. After 2.5–3 days, cell pellets were harvested by centrifugation at 3500 x g at 4 °C for 20 min, and flash frozen in liquid nitrogen prior to storage at −80 °C.
To purify the EGFR kinase domain, Sf9 cell pellets (~10 g) was thawed on ice and homogenized with 2 passages on an EmulsiFlex-C5 (Avestin) in 50 mL of lysis buffer (50 mM Tris pH 7.5, 600 mM NaCl, 1 mM EDTA, 1 mM TCEP, protease inhibitors, DNAase, and 10% Glycerol). The lysate was centrifugated and supernatant was collected and loaded onto a 1.0 mL HisTrap FF column (GE) at a flow rate of 1.0 ml/min. Following loading, the column was washed with 20 column volumes of wash buffer (50 mM Tris pH 7.5, 600 mM NaCl, 20 mM Imidazole, 1 mM TCEP, and 10% Glycerol) and eluted with a linear gradient of elution buffers containing 20 and 300 mM imidazole. Fractions containing the EGFR kinase domain proteins were combined and concentrated to less than 1.0 mL. The concentrated proteins were loaded onto a Superdex 200 10/300 GL column (GE) equilibrated in buffer (20 mM Tris pH 7.5, 100 mM NaCl) for further purification. The purified proteins were concentrated, flash frozen in liquid nitrogen, and stored at −80 °C.
MST experiments were carried out using a Monolith NT.115 pico instrument (NanoTemper Technologies, Munich Germany). […] Kd values were derived from the concentration-dependent changes in normalized fluorescence (Fnorm). Data were analyzed using NanoTemper MO. […]

CNC(=O)CN1CCC(Oc2cc3c(Nc4cccc(Cl)c4F)ncnc3cc2OC)CC1 [Sapitinib]
impact on cell viability / growth (MCF10A cells): more effective at inhibiting cell growth in immortalized cells than in cancer cells; also recorded: significantly reduces viability of normal cells | impact on cell viability / growth (CHO cells): more effective at inhibiting cell growth in immortalized cells than in cancer cells

C#Cc1cccc(Nc2ncnc3cc(OCCOC)c(OCCOC)cc23)c1 [erlotinib]
resistance to erlotinib (T47D cells): resistant | resistance to erlotinib (MDA-MB-231 cells): resistant

human SNX-BAR protein (SNX1 BAR domain, residues 301-522) (from UniProt Q13596 301-522) (domain or fragment)
Kd [1]: 3000 nM

B1: BAR domain: human SNX1 BAR domain, residues 301–522, expressed in E. coli (protein)
chain: KMNESDIWFEEKLQEVECEEQRLRKLHAVVETLVNHRKELALNTAQFAKSLAMLGSSEDNTALSRALSQLAEVEEKIEQLHQEQANNDFFLLAELLSDYIRLLAIVRAAFDQRMKTWQRWQDAQATLQKKREAEARLLWANKPDKLQQAKDEILEWESRVTQYERDFERISTVVRKEVIRFEKEKSKDFKNHVIKYLETLLYSQQQLAKYWEAFLPEAKAIS
modifications: left off: MBP, N-terminal, cleaved
notes: human SNX1 BAR domain, residues 301–522, expressed in E. coli
Kd [2]: 3000 nM | Kd ([2]; listed as SNX1 Bar): 2900 ± 1700 nM
